≈ marks a conversion by molar mass, not a printed value. Calls of active or inactive are those of the source. The rule behind the calls is not given here.
Tests used:
Staphylococcus aureus [1] = assay: Antibacterial activity against methicillin-resistant Staphylococcus aureus assessed as inhibition of bacterial growth; assay type: functional
Staphylococcus aureus [2] = assay: Antibacterial activity against methicillin-resistant Staphylococcus aureus MB5395 assessed as inhibition of bacterial growth; assay type: functional
Enterococcus faecium [3] = assay: Antibacterial activity against vancomycin A-resistant Enterococcus faecium assessed as inhibition of bacterial growth; assay type: functional
Enterococcus faecium [4] = assay: Antibacterial activity against vancomycin B-resistant Enterococcus faecium assessed as inhibition of bacterial growth; assay type: functional
Acinetobacter baumannii = assay: Antibacterial activity against Acinetobacter baumannii ATCC19606 assessed as inhibition of bacterial growth; assay type: functional, organism-based
Aspergillus fumigatus = assay: Antifungal activity against Aspergillus fumigatus ATCC46645 assessed as inhibition of […] growth; assay type: functional, organism-based

| Structure (SMILES) | MIC95 (Staphylococcus aureus [1]) [µg/mL] | MIC95 (Staphylococcus aureus [2]) [µg/mL] | MIC95 (Enterococcus faecium [3]) [µg/mL] | MIC95 (Enterococcus faecium [4]) [µg/mL] | Activity (Acinetobacter baumannii) | Activity (Aspergillus fumigatus) |
| --- | --- | --- | --- | --- | --- | --- |
| CCCCC/C=C/C=C/C(=O)NC[C@@H]1NC(=O)CNC(=O)[C@@H](N)CNC(=O)[C@@H](Cc2ccc(OC)cc2)NC1=O | 16 (≈ 28.7 µM) | – | – | – | – | – |
| CCCCC/C=C/C=C/C(=O)NC[C@@H]1NC(=O)CN2C(=O)[C@H](CNC(=O)[C@@H](Cc3ccc(OC)cc3)NC1=O)NC2(C)C | 16 (≈ 26.8 µM) | 4 (≈ 6.7 µM) | 16 (≈ 26.8 µM) | 8 (≈ 13.4 µM) | inactive | inactive |

Source: ChEMBL document CHEMBL6127082, “Genome-Led Discovery of the Antibacterial Cyclic Lipopeptide Kutzneridine A and Its Silent Biosynthetic Gene Cluster from Kutzneria Species” (2024)
